Molecules are shown by their SMILES.

The text below walks through data of US11298431B2, “Method for labeling radioisotope radiolabeling compound and kit comprising the same for labeling radioisotope” (KOREA ATOMIC ENERGY RESEARCH INSTITUTE, priority 2018, dated 2022).

A short description of data set [1]: In vitro stability in various media at 37° C. (radio-HPLC). Type of data set: in vitro ADME. From the text: (§1) For synthesis of ^125I-labeled aldehyde [^125I] 5, specific radioactive analogue 4-iodo-N-(4-oxobutyl) benzamide) 5 was synthesized by coupling of 4-aminobutyraldehyde diethyl acetal with 4-iodobenzoic acid under basic conditions and a subsequent reduction under acidic conditions (Scheme 1). The radioiodination shown in 6 was achieved using [^125I] NaI and chloramines-T as oxidants (Scheme 3). The radioiodination reaction was terminated by adding an aqueous solution of sodium metabisulfite. After HPLC purification of the crude product, [^125I] 5 was obtained with high radiochemical yield (72±6%, n=5). The specific activity was 45 GBq/μmol and the chemical purity was more than 99%. In the HPLC chromatogram of the crude mixture, the main product [^125I] 5 was clearly shown at 22.6 minutes (FIG. 1). Radio-labeling reactions were performed by using various amounts of radioisotopes (100 μCi to 1 mCi), but the radiochemical results were consistent. The radioactive iodine compound [^125I] […] The compound [^125I]

Data set [2] in a line: Storage stability of the radioiodinated aldehyde in the refrigerator. Type of data set: physicochemical.
Description: as §1

With `O=CCCCNC(=O)c1ccc([125I])cc1` [[^125I] 5], the “time shown to be stable in medium” value in data set [1] (PBS), in data set [1] (mouse serum) and in data set [1] (saline) was no less than 24 h each time. In addition, in data set [2] (compared with active ester-based prosthetic groups (Bolton-Hunter-reagent)), the hydrolysis entry is listed as “not hydrolyzed”. In addition, in data set [2] (refrigerator (4° C.)), the “time found to be stable in the refrigerator” value is on record as “more than 6 months”.
